From PMC7961380, “A Systematic Study of the In Vitro Pharmacokinetics and Estimated Human In Vivo Clearance of Indole and Indazole-3-Carboxamide Synthetic Cannabinoid Receptor Agonists Detected on the Illicit Drug Market” (Molecules, 2021)
Where “and” joins values, the source holds several entries; their conditions need not be identical. Equal values may be shown once. Read-outs that look alike come from different tables or passages of the source.

Assays:
[1] = Plasma protein binding by equilibrium dialysis; format: in vitro ADME, human; settings: 37 °C; for fraction unbound at 5 h, 10 µg mL^−1: human, pooled human plasma, pH 7.4, equilibrium dialysis 5 h
[2] = Short-term plasma stability with and without esterase inhibitors; settings: human, pH 7.4, Parent Compound Remaining (%), 3 h, 37 °C
[3] = Metabolic stability, pooled human liver microsome incubations; settings: for Predicted In Vivo Hepatic Clearance, CLH: from pHLM CLint, well-stirred model with plasma fu, Q 21 mL min^−1 kg^−1; for CLint scaled at 0.5 µM / half-life at 0.5 µM: human, microsomes; for CLint scaled at 0.5 µM: pH 7.4, Intrinsic clearance; for half-life at 0.5 µM: pH 7.4, T1/2 (min), pHLM 0.5 mg mL^−1, 0.5 µM, NADPH, 37 °C; for half-life at 0.5 µM / Microsomal Intrinsic Clearance, CLint micr: n ≥ 3 ± SD
[4] = tested on: pooled human cryopreserved hepatocytes (pHHeps); experiment: Metabolic stability, pooled human cryopreserved hepatocyte incubations; settings: for Predicted In Vivo Hepatic Clearance, CLH: from pHHeps CLint, well-stirred model with plasma fu, Q 21 mL min^−1 kg^−1
[5] = as above; settings: human, hepatocytes; for CLint scaled at 0.5 µM: Intrinsic clearance, pHHeps, alternative hepatocyte cell density 99x10^6 hepatocytes per gram liver
[6] = Esterase Inhibitors, pH 7.4, BNPP and PMSF 500 µM each
[7] = plasma, No Esterase Inhibitors, pH 7.4, pooled human plasma
[8] = pHLM, alternative microsomal scaling factor 32 mg microsomal protein per gram liver
[9] = pHLM, alternative microsomal scaling factor 45 mg microsomal protein per gram liver
[10] = pHLM, scaling factor 32 mg microsomal protein per gram liver
[11] = pHLM, scaling factor 45 mg microsomal protein per gram liver
[12] = pHHeps, 99x10^6 hepatocytes per gram liver
[13] = T1/2 (min), pHHeps 0.25 million cells mL^−1, 0.5 µM, 37 °C, n ≥ 3 ± SD
[14] = 10 µg mL^−1, read-out: PPB (%) (converted)
[15] = plasma, read-out: Fraction Unbound (fu)

COC(=O)[C@@H](NC(=O)c1nn(CCCCCF)c2ccccc12)C(C)(C)C [(S)-5F-MDMB-PINACA (2), methyl 2-[1-(5-fluoropentyl)-1H-indazole-3-carboxamido]-3,3-dimethylbutanoate]
PPB (%) ([1]; equilibrium dialysis 5 h, 10 µg mL^−1): 97.8 ± 0.19%
Fraction Unbound (fu) ([1]; equilibrium dialysis 5 h, plasma): 0.022 ± 0.0019
remaining at 3 h, 5 µM [2, 6]: 97 ± 1.1%
remaining at 3 h, 5 µM [2, 7]: 92.5 ± 10.2%
Predicted In Vivo Hepatic Clearance, CLH [3]: 4.76 ± 0.17 mL/min/kg
Hepatic extraction ratio, EH ([3]; from pHLM incubations): 0.23 ± 0.008
CLint scaled at 0.5 µM [3, 8]: 171 mL/min/kg
CLint scaled at 0.5 µM [3, 9]: 240 ± 11 mL/min/kg
half-life at 0.5 µM [3]: 6.7 ± 0.31 min
% parent compound remaining, Average ([3]; pHLM, 3 min): 69.9%
% parent compound remaining, Average ([3]; pHLM, 6 min): 51.7%
% parent compound remaining, Average ([3]; pHLM, 9 min): 39.0%
% parent compound remaining, Average ([3]; pHLM, 15 min): 22.7%
% parent compound remaining, Average ([3]; pHLM, 30 min): 6.1%
Microsomal Intrinsic Clearance, CLint micr ([3]; pHLM): 0.207 ± 0.009 mL min^−1 mg Microsomal Protein^−1
Hepatic extraction ratio, EH [3, 10]: 0.15 ± 0.006
Predicted in vivo hepatic clearance, CLH [3, 10]: 3.18 mL/min/kg
Hepatic extraction ratio, EH [3, 11]: 0.20 ± 0.007
Predicted in vivo hepatic clearance, CLH [3, 11]: 4.22 ± 0.15 mL/min/kg
Predicted In Vivo Hepatic Clearance, CLH [4]: 8.05 ± 1.15 mL/min/kg
Hepatic extraction ratio, EH ([4]; from pHHeps incubations): 0.38 ± 0.055
half-life ([4]; pHHep lot HUE50-P): 13.2 ± 3.4 min
Hepatic extraction ratio, EH [4, 12]: 0.37
Predicted in vivo hepatic clearance, CLH [4, 12]: 7.67 mL/min/kg
% parent compound remaining, Average ([4]; pHHeps, 3 min): 77.3%
% parent compound remaining, Average ([4]; pHHeps, 6 min): 66.9%
% parent compound remaining, Average ([4]; pHHeps, 9 min): 57.5%
% parent compound remaining, Average ([4]; pHHeps, 15 min): 48.3%
% parent compound remaining, Average ([4]; pHHeps, 30 min): 21.1%
% parent compound remaining, Average ([4]; pHHeps, 45 min): 10.6%
% parent compound remaining, Average ([4]; pHHeps, 60 min): 5.6%
CLint scaled at 0.5 µM [5]: 559 mL/min/kg
half-life at 0.5 µM [5, 13]: 13 ± 3.3 min
half-life at 0.5 µM ([5]; half-life, pHHep lot HUE50-N): 13.3 ± 3.4 min

CC(C)[C@H](NC(=O)c1nn(Cc2ccc(F)cc2)c2ccccc12)C(N)=O [(S)-AB-FUBINACA (8), N-(1-amino-3-methyl-1-oxobutan-2-yl)-1-(4-fluorobenzyl)-1H-indazole-3-carboxamide]
fraction unbound at 5 h, 10 µg mL^−1 [1, 14]: 0.021
fraction unbound at 5 h, 10 µg mL^−1 [1, 15]: 0.021 ± 0.0044
remaining at 3 h, 5 µM [2, 6]: 103 ± 2.5%
remaining at 3 h, 5 µM [2, 7]: 104 ± 1.1%
Predicted In Vivo Hepatic Clearance, CLH [3]: 0.34 mL/min/kg and 0.34 ± 0.09 mL/min/kg
Hepatic extraction ratio, EH ([3]; from pHLM incubations): 0.02 and 0.02 ± 0.004
CLint scaled at 0.5 µM [3, 8]: 10 mL/min/kg
CLint scaled at 0.5 µM [3, 9]: 14.1 mL/min/kg
half-life at 0.5 µM [3]: 118 ± 28 min
% parent compound remaining, Average ([3]; pHLM, 3 min): 87.3%
% parent compound remaining, Average ([3]; pHLM, 6 min): 87.3%
% parent compound remaining, Average ([3]; pHLM, 9 min): 85.0%
% parent compound remaining, Average ([3]; pHLM, 15 min): 84.2%
% parent compound remaining, Average ([3]; pHLM, 30 min): 79.6%
Microsomal Intrinsic Clearance, CLint micr ([3]; pHLM): 0.012 ± 0.003 mL min^−1 mg Microsomal Protein^−1
Hepatic extraction ratio, EH [3, 10]: 0.01 ± 0.003
Predicted in vivo hepatic clearance, CLH [3, 10]: 0.21 ± 0.05 mL/min/kg
Hepatic extraction ratio, EH [3, 11]: 0.01 ± 0.004
Predicted in vivo hepatic clearance, CLH [3, 11]: 0.29 ± 0.07 mL/min/kg
Predicted In Vivo Hepatic Clearance, CLH [4]: 2.06 ± 0.58 mL/min/kg
Hepatic extraction ratio, EH ([4]; from pHHeps incubations): 0.10 ± 0.028
Hepatic extraction ratio, EH [4, 12]: 0.09 ± 0.026
Predicted in vivo hepatic clearance, CLH [4, 12]: 1.92 ± 0.55 mL/min/kg
% parent compound remaining, Average ([4]; pHHeps, 3 min): 93.3%
% parent compound remaining, Average ([4]; pHHeps, 6 min): 86.0%
% parent compound remaining, Average ([4]; pHHeps, 9 min): 85.5%
% parent compound remaining, Average ([4]; pHHeps, 15 min): 85.4%
% parent compound remaining, Average ([4]; pHHeps, 30 min): 72.4%
% parent compound remaining, Average ([4]; pHHeps, 45 min): 69.5%
% parent compound remaining, Average ([4]; pHHeps, 60 min): 66.6%
CLint scaled at 0.5 µM [5]: 101 ± 32 mL/min/kg
half-life at 0.5 µM [5, 13]: 76 ± 24 min

C=CCCCn1cc(C(=O)N[C@H](C(=O)OC)C(C)C)c2ccccc21 [(S)-AMB-4en-PICA (7), methyl 3-methyl-2-[(1-pent-4-enylindole-3-carbonyl)amino] butanoate]
fraction unbound at 5 h, 10 µg mL^−1 [1, 14]: 0.053
fraction unbound at 5 h, 10 µg mL^−1 [1, 15]: 0.053 ± 0.0037
remaining at 3 h, 5 µM [2, 6]: 95.6 ± 6.8%
remaining at 3 h, 5 µM [2, 7]: 92.6 ± 8.3%
Predicted In Vivo Hepatic Clearance, CLH [3]: 9.29 ± 0.89 mL/min/kg
Hepatic extraction ratio, EH ([3]; from pHLM incubations): 0.44 ± 0.042
CLint scaled at 0.5 µM [3, 8]: 194 mL/min/kg
CLint scaled at 0.5 µM [3, 9]: 273 mL/min/kg
half-life at 0.5 µM [3]: 6 ± 1 min
% parent compound remaining, Average ([3]; pHLM, 3 min): 67.6%
% parent compound remaining, Average ([3]; pHLM, 6 min): 49.5%
% parent compound remaining, Average ([3]; pHLM, 9 min): 36.3%
% parent compound remaining, Average ([3]; pHLM, 15 min): 18.0%
% parent compound remaining, Average ([3]; pHLM, 30 min): 3.0%
Microsomal Intrinsic Clearance, CLint micr ([3]; pHLM): 0.236 ± 0.042 mL min^−1 mg Microsomal Protein^−1
Hepatic extraction ratio, EH [3, 10]: 0.33 ± 0.038
Predicted in vivo hepatic clearance, CLH [3, 10]: 6.86 mL/min/kg
Predicted in vivo hepatic clearance, CLH [3, 11]: 8.51 mL/min/kg
Predicted In Vivo Hepatic Clearance, CLH [4]: 15.56 ± 1.24 mL/min/kg
Hepatic extraction ratio, EH ([4]; from pHHeps incubations): 0.74 ± 0.059
Hepatic extraction ratio, EH [4, 12]: 0.73 ± 0.061
Predicted in vivo hepatic clearance, CLH [4, 12]: 15.25 ± 1.28 mL/min/kg
% parent compound remaining, Average ([4]; pHHeps, 3 min): 68.4%
% parent compound remaining, Average ([4]; pHHeps, 6 min): 54.6%
% parent compound remaining, Average ([4]; pHHeps, 9 min): 33.2%
% parent compound remaining, Average ([4]; pHHeps, 15 min): 19.4%
% parent compound remaining, Average ([4]; pHHeps, 30 min): 6.5%
% parent compound remaining, Average ([4]; pHHeps, 45 min): 1.9%
% parent compound remaining, Average ([4]; pHHeps, 60 min): 0.6%
CLint scaled at 0.5 µM [5]: 1120 mL/min/kg
half-life at 0.5 µM [5, 13]: 6.9 ± 2.1 min

COC(=O)[C@@H](NC(=O)c1cn(CC2CCCCC2)c2ccccc12)C(C)C [(S)-AMB-CHMICA (9), methyl [1-(cyclohexylmethyl)-1H-indole-3-carbonyl]valinate]
fraction unbound at 5 h, 10 µg mL^−1 [1, 14]: 0.012
fraction unbound at 5 h, 10 µg mL^−1 [1, 15]: 0.012 ± 0.0006
remaining at 3 h, 5 µM [2, 6]: 90.5 ± 3.4%
remaining at 3 h, 5 µM [2, 7]: 93.9 ± 9.3%
Predicted In Vivo Hepatic Clearance, CLH [3]: 4.37 ± 0.68 mL/min/kg
Hepatic extraction ratio, EH ([3]; from pHLM incubations): 0.21 ± 0.032
CLint scaled at 0.5 µM [3, 8]: 282 mL/min/kg
CLint scaled at 0.5 µM [3, 9]: 397 mL/min/kg
half-life at 0.5 µM [3]: 4.1 ± 0.75 min
% parent compound remaining, Average ([3]; pHLM, 3 min): 52.7%
% parent compound remaining, Average ([3]; pHLM, 6 min): 35.1%
% parent compound remaining, Average ([3]; pHLM, 9 min): 25.3%
% parent compound remaining, Average ([3]; pHLM, 15 min): 9.9%
% parent compound remaining, Average ([3]; pHLM, 30 min): 2.5%
Microsomal Intrinsic Clearance, CLint micr ([3]; pHLM): 0.343 ± 0.069 mL min^−1 mg Microsomal Protein^−1
Hepatic extraction ratio, EH [3, 10]: 0.14 ± 0.024
Predicted in vivo hepatic clearance, CLH [3, 10]: 2.91 ± 0.50 mL/min/kg
Hepatic extraction ratio, EH [3, 11]: 0.18 ± 0.030
Predicted in vivo hepatic clearance, CLH [3, 11]: 3.87 ± 0.62 mL/min/kg
Predicted In Vivo Hepatic Clearance, CLH [4]: 7.68 ± 0.22 mL/min/kg
Hepatic extraction ratio, EH ([4]; from pHHeps incubations): 0.37 ± 0.011
Hepatic extraction ratio, EH [4, 12]: 0.35 ± 0.011
Predicted in vivo hepatic clearance, CLH [4, 12]: 7.31 ± 0.23 mL/min/kg
% parent compound remaining, Average ([4]; pHHeps, 3 min): 65.0%
% parent compound remaining, Average ([4]; pHHeps, 6 min): 58.4%
% parent compound remaining, Average ([4]; pHHeps, 9 min): 43.3%
% parent compound remaining, Average ([4]; pHHeps, 15 min): 23.8%
% parent compound remaining, Average ([4]; pHHeps, 30 min): 8.7%
% parent compound remaining, Average ([4]; pHHeps, 45 min): 3.5%
% parent compound remaining, Average ([4]; pHHeps, 60 min): 1.5%
CLint scaled at 0.5 µM [5]: 935 ± 44.8 mL/min/kg
half-life at 0.5 µM [5, 13]: 7.6 ± 0.35 min
